For the series the following is noted: 10 mM compound in 0.5 M aqueous NaCl; well-defined, reversible redox waves.

From patent US20180191012A1, “AQUEOUS […]-BASED REDOX FLOW BATTERIES” (UCHICAGO ARGONNE, LLC, priority 2016, published 2018) come the findings set out here.

`c1cc[n+]2c(c1)-c1cccc[n+]1CC2` [A, N,N′-(ethan-1,2-diyl)-2,2′-bipyridinedium dibromide]: the “redox potential versus Ag/AgCl” value is on record as −0.60 V.
